Results: patent publication US8318697B2, “Prophylactic and therapeutic treatment of infectious and other diseases with mono- and disaccharide-based compounds” (Corixa Corporation, priority 2000, dated 2012)
Like-named read-outs stand apart in the source and are kept apart here.

Columns and labels:
human whole blood = assay type: cell-based; details: for IL10/TNFα cba: ratio of IL-10 to TNF; for TNFα/IL10 cba: ratio of TNF to IL-10
[1] = test system: L. monocytogenes 10403 serotype; assay: Murine Listeria monocytogenes challenge model; assay type: in vivo, Mice; details: 1 μg intravenously in 0.2% TEOA, challenge two days later; FIGS. 14-17
Method: This example provides experiments evaluating the induction of non-specific resistance in the murine Listeria monocytogenes challenge model performed using various AGPs and MPL. Mice (5 per group) were treated intravenously with the 1 μg of an AGP or MPL solubilized in 0.2% TEOA. Two days later the mice were challenged intravenously with a ˜10^5 L. monocytogenes 10403 serotype (provided by M. L. Gray, Montana State University, Bozeman, Mont.). Two days after the challenge, the mice were sacrificed and the number of colony forming units (CFUs) in the spleens of individual mice were determined by plating 10-fold serial dilutions of splenic homogenates on tryptic soy agar plates. The degree of protection afforded by a given AGP or MPL was calculated by subtracting the average number of bacteria per spleen (log 10 value) in the group of mice treated with a given compound, from the average number of bacteria per spleen (log 10 value) in a control group that was “sham” treated with vehicle (0.2% TEOA) prior to challenge with L. monocytogenes.

[2] = test system: Ogawa P. gingivalis LPS stimulated whole blood cells; assay: Inhibition of LPS-induced cytokines in whole blood; assay type: cell-based, human; details: 10, 5, 2.5 ug/mL
Description: Table 4 provides the maximum levels of IL-4, IL-2 and IL-5 obtained, as well as ratios of TNF to IL-10, and ratios of IL-10 to TNF. Inhibition data for IL-8, reported as a percentage, are also provided on the right hand side of Table 4. For example, 90% inhibition would calculate to a 90% reduction of cytokine levels. MIP-1β results were similar. […]

human PBMCs = assay: Lineage specific cell surface activation markers in human PBMCs; assay type: cell-based; details: LPS 10 ng/ml, RC-526 or RC-527 10 μg/ml
Method: This experiment describes lineage specific cell surface activation markers in human PBMCs activated with LPS or selected AGPs. PBMCs were harvested from a normal donor and plated at 1×10^7 cells/well in a […] (6 well plate) with 3 ml RPMI. LPS (10 ng/ml), RC-526 (10 μg/ml) or RC-527 (10 μg/ml) were added to each of 4 wells. Cells were harvested from each of 2 wells at 4 hr and 24 hr following activation and immediately stained for the lineage and cell surface activation markers.

influenza A/HK/68 = assay: Lethal influenza challenge model, intranasal monotherapy; details: i.n.; for protection against influenza challenge over dose range: doses up to 40 μg, FIG. 12; for protection against influenza challenge, compared by secondary fatty acid chains: FIG. 11, FIG. 13
Method: A dose of 20 μg MonoPhosphoryl Lipid A (MPL) was given to groups of female BALB/c mice by intranasal (i.n.) administration either 2 days prior to or the day of lethal influenza challenge. All mice were challenged with approximately 2 LD50 infectious influenza A/HK/68 administered i.n. Mortality was monitored for 21 days following influenza challenge.
A dose of 20 μg L-Seryl AGPs (RC-526, RC-554, RC-555, RC-537, RC-527, RC-538, RC-560, RC-512 and vehicle only) was given to groups of female BALB/c mice by intranasal (i.n.) administration 2 days prior to or the day of lethal influenza challenge. All mice were challenged with approximately 2 LD50 infectious influenza A/HK/68 administered i.n. The disease index (ruffled fur, hunched posture and labored breathing) was monitored during days 4-19 following influenza challenge. Weight loss and mortality were monitored for 21 days following influenza challenge.

[3] = test system: human peripheral blood mononuclear cells (PBMC); assay: Cytokine elaboration from frozen human PBMC (ELISA); assay type: cell-based; details: PBMC donor AD112, 22 hours; FIG. 9
Method: PBMC were stored frozen until used. PBMC donor designation was AD112. PBMC at a density of 6.26×10^5 were plated per well in a 48 well plate in 1.0 ml of medium. Medium consisted of RPMI-1640 plus sodium bicarbonate, 10% fetal bovine serum, 4 mM glutamine, 100 ug/ml gentamicin and 10 mM HEPES. PBMC were cultured for 22 hours at 37° C. in a carbon dioxide incubator. Supernatants were harvested and tested by ELISA (R&D Systems) for IL-6, IL-8, IL-10 and MIP-1 beta concentration. Cytokine concentration in supernatants was compared to supernatants obtained from unstimulated PBMC cultured identically.

Structure (SMILES): CCCCCCCCCCC[C@H](CC(=O)NCCO[C@@H]1O[C@H](CO)[C@@H](OP(=O)(O)O)[C@H](OC(=O)C[C@@H](CCCCCCCCCCC)OC(=O)CCCCCCCCC)[C@H]1NC(=O)C[C@@H](CCCCCCCCCCC)OC(=O)CCCCCCCCC)OC(=O)CCCCCCCCC.CCN(CC)CC [RC-524]
- IL10/TNFα cba (human whole blood; donor 1): 1.8
- TNFα/IL10 cba (human whole blood; donor 1): 0.2
- IL10/TNFα cba (human whole blood; donor 2): 4
- TNFα/IL10 cba (human whole blood; donor 2): 0.3
- protection against L. monocytogenes challenge (reduction of log 10 bacteria per spleen vs vehicle) [1]: protection that was equal to or greater than that provided by MPL

Structure (SMILES): CCCCCCCCCCC[C@H](CC(=O)N[C@H]1[C@H](OC[C@H](NC(=O)C[C@@H](CCCCCCCCCCC)OC(=O)CCCCC)C(=O)O)O[C@H](CO)[C@@H](OP(=O)(O)O)[C@@H]1OC(=O)C[C@@H](CCCCCCCCCCC)OC(=O)CCCCC)OC(=O)CCCCC.CCN(CC)CC [RC-526]
- IL-1β cba2 (human whole blood; donor 1): 256
- IL10/TNFα cba (human whole blood; donor 2): 1.2
- TNFα/IL10 cba (human whole blood; donor 2): 0.9
- cytokine stimulation in human whole blood cultures (human whole blood; overnight culture): little if any cytokine stimulation
- % inhib. LPS IL-8 [2]: 99%
- CD3+ CD69+ percent expression in NK-Cells (CD56+) (human PBMCs; 4 hr activation): 1%
- CD25+ percent expression in B-cells (CD19+) (human PBMCs; 4 hr activation): 0%
- CD25+ percent expression in Mono/Macs (CD14+) (human PBMCs; 4 hr activation): 1%
- CD69+ percent expression in B-cells (CD19+) (human PBMCs; 4 hr activation): 11%
- CD69+ percent expression in Mono/Macs (CD14+) (human PBMCs; 4 hr activation): 1%
- CD69+ percent expression in NK-Cells (CD56+) (human PBMCs; 4 hr activation): 4%
- CD69+ percent expression in T-cells (CD3+) (human PBMCs; 4 hr activation): 1%
- CD86+ percent expression in B-cells (CD19+) (human PBMCs; 4 hr activation): 4%
- CD95+ percent expression in B-cells (CD19+) (human PBMCs; 4 hr activation): 6%
- MFI CD11b+ in Mono/Macs (CD14+) (human PBMCs; 4 hr activation): 2154
- MFI CD54+ (ICAM-1) in B-cells (CD19+) (human PBMCs; 4 hr activation): 55
- MFI CD54+(ICAM-1) in Mono/Macs (CD14+) (human PBMCs; 4 hr activation): 502
- TLR2+ percent expression in Mono/Macs (CD14+) (human PBMCs; 4 hr activation): 93%
- CD3+ CD69+ percent expression in NK-Cells (CD56+) (human PBMCs; 24 hr activation): 2%
- CD14+ CD25+ percent expression in Mono/Macs (CD14+) (human PBMCs; 24 hr activation): 1%
- CD14+ CD69+ percent expression in Mono/Macs (CD14+) (human PBMCs; 24 hr activation): 2%
- CD14+ TLR2+ percent expression in Mono/Macs (CD14+) (human PBMCs; 24 hr activation): 79%
- CD19+ CD25+ percent expression in B-Cells (CD19+) (human PBMCs; 24 hr activation): 9%
- CD19+ CD69+ percent expression in B-Cells (CD19+) (human PBMCs; 24 hr activation): 22%
- CD19+ CD86+ percent expression in B-Cells (CD19+) (human PBMCs; 24 hr activation): 22%
- CD19+ CD95+ percent expression in B-Cells (CD19+) (human PBMCs; 24 hr activation): 15%
- CD69+ percent expression in NK-Cells (CD56+) (human PBMCs; 24 hr activation): 4%
- CD69+ percent expression in T-cells (CD3+) (human PBMCs; 24 hr activation): 2%
- MFI CD11b+ in Mono/Macs (CD14+) (human PBMCs; 24 hr activation): 1986
- MFI CD54+ (ICAM-1) in B-cells (CD19+) (human PBMCs; 24 hr activation): 118
- MFI CD54+(ICAM-1) in Mono/Macs (CD14+) (human PBMCs; 24 hr activation): 1590
- protection against influenza challenge over dose range (influenza A/HK/68): no difference in protection up to doses of 40 μg

Structure (SMILES): CCCCCCCCCCC[C@H](CC(=O)N[C@H]1[C@H](OC[C@H](NC(=O)C[C@@H](CCCCCCCCCCC)OC(=O)CCCCCCCCC)C(=O)O)O[C@H](CO)[C@@H](OP(=O)(O)O)[C@@H]1OC(=O)C[C@@H](CCCCCCCCCCC)OC(=O)CCCCCCCCC)OC(=O)CCCCCCCCC.CCN(CC)CC [RC-527]
- IL-1β cba2 (human whole blood; donor 1): 7102
- IL10/TNFα cba (human whole blood; donor 1): 0.4
- TNFα/IL10 cba (human whole blood; donor 1): 2.5
- IL10/TNFα cba (human whole blood; donor 2): 0.3
- TNFα/IL10 cba (human whole blood; donor 2): 3.4
- % inhib. LPS IL-8 [2]: 5%
- CD3+ CD69+ percent expression in NK-Cells (CD56+) (human PBMCs; 4 hr activation): 11%
- CD25+ percent expression in B-cells (CD19+) (human PBMCs; 4 hr activation): 0%
- CD25+ percent expression in Mono/Macs (CD14+) (human PBMCs; 4 hr activation): 1%
- CD69+ percent expression in B-cells (CD19+) (human PBMCs; 4 hr activation): 56%
- CD69+ percent expression in Mono/Macs (CD14+) (human PBMCs; 4 hr activation): 22%
- CD69+ percent expression in NK-Cells (CD56+) (human PBMCs; 4 hr activation): 40%
- CD69+ percent expression in T-cells (CD3+) (human PBMCs; 4 hr activation): 10%
- CD86+ percent expression in B-cells (CD19+) (human PBMCs; 4 hr activation): 8%
- CD95+ percent expression in B-cells (CD19+) (human PBMCs; 4 hr activation): 7%
- MFI CD11b+ in Mono/Macs (CD14+) (human PBMCs; 4 hr activation): 1870
- MFI CD54+ (ICAM-1) in B-cells (CD19+) (human PBMCs; 4 hr activation): 65
- MFI CD54+(ICAM-1) in Mono/Macs (CD14+) (human PBMCs; 4 hr activation): 743
- TLR2+ percent expression in Mono/Macs (CD14+) (human PBMCs; 4 hr activation): 85%
- CD3+ CD69+ percent expression in NK-Cells (CD56+) (human PBMCs; 24 hr activation): 16%
- CD14+ CD25+ percent expression in Mono/Macs (CD14+) (human PBMCs; 24 hr activation): 70%
- CD14+ CD69+ percent expression in Mono/Macs (CD14+) (human PBMCs; 24 hr activation): 22%
- CD14+ TLR2+ percent expression in Mono/Macs (CD14+) (human PBMCs; 24 hr activation): 97%
- CD19+ CD25+ percent expression in B-Cells (CD19+) (human PBMCs; 24 hr activation): 34%
- CD19+ CD69+ percent expression in B-Cells (CD19+) (human PBMCs; 24 hr activation): 66%
- CD19+ CD86+ percent expression in B-Cells (CD19+) (human PBMCs; 24 hr activation): 51%
- CD19+ CD95+ percent expression in B-Cells (CD19+) (human PBMCs; 24 hr activation): 73%
- CD69+ percent expression in NK-Cells (CD56+) (human PBMCs; 24 hr activation): 50%
- CD69+ percent expression in T-cells (CD3+) (human PBMCs; 24 hr activation): 10%
- MFI CD11b+ in Mono/Macs (CD14+) (human PBMCs; 24 hr activation): 1611
- MFI CD54+ (ICAM-1) in B-cells (CD19+) (human PBMCs; 24 hr activation): 211
- MFI CD54+(ICAM-1) in Mono/Macs (CD14+) (human PBMCs; 24 hr activation): 4445
- protection against L. monocytogenes challenge (reduction of log 10 bacteria per spleen vs vehicle) [1]: protection that was equal to or greater than that provided by MPL
- protection against influenza challenge over dose range (influenza A/HK/68): maximum protection over a dose range of 2.5 μg to 40 μg

Structure (SMILES): CCCCCCCCCCCCCC(=O)O[C@H](CCCCCCCCCCC)CC(=O)NCCO[C@@H]1O[C@H](CO)[C@@H](OP(=O)(O)O)[C@H](OC(=O)C[C@@H](CCCCCCCCCCC)OC(=O)CCCCCCCCCCCCC)[C@H]1NC(=O)C[C@@H](CCCCCCCCCCC)OC(=O)CCCCCCCCCCCCC.CCN(CC)CC [RC-529]
- IL10/TNFα cba (human whole blood; donor 1): 6.2
- TNFα/IL10 cba (human whole blood; donor 1): 0.4
- IL-6 elaboration compared to MPL [3]: induced more IL-6, IL-10 and MIP-1 beta than did MPL
- IL-10 elaboration compared to MPL [3]: induced more IL-6, IL-10 and MIP-1 beta than did MPL
- MIP-1 beta elaboration compared to MPL [3]: induced more IL-6, IL-10 and MIP-1 beta than did MPL

Structure (SMILES): CCCCCCCCCCC[C@H](CC(=O)N[C@H](CO)CCO[C@@H]1O[C@H](CO)[C@@H](OP(=O)(O)O)[C@H](OC(=O)C[C@@H](CCCCCCCCCCC)OC(=O)CCCCCCCCC)[C@H]1NC(=O)C[C@@H](CCCCCCCCCCC)OC(=O)CCCCCCCCC)OC(=O)CCCCCCCCC.CCN(CC)CC [RC-540]
- IL10/TNFα cba (human whole blood; donor 1): 5.5
- TNFα/IL10 cba (human whole blood; donor 1): 0.2
- IL10/TNFα cba (human whole blood; donor 2): 5.2
- TNFα/IL10 cba (human whole blood; donor 2): 0.2
- protection against L. monocytogenes challenge (reduction of log 10 bacteria per spleen vs vehicle) [1]: protection that was equal to or greater than that provided by MPL

Structure (SMILES): CCCCCCCCCCC[C@H](CC(=O)N[C@H]1[C@H](OC[C@H](NC(=O)C[C@@H](CCCCCCCCCCC)OC(=O)CCCCCCCCC)C(=O)O)O[C@H](CO)[C@@H](OP(=O)(O)O)[C@@H]1OC(=O)C[C@@H](CCCCCCCCCCC)OC(=O)CCCCCCCCC)OC(=O)CCCCC.CCN(CC)CC [RC-565]
- % inhib. LPS IL-8 [2]: 16%
- protection against influenza challenge, compared by secondary fatty acid chains (influenza A/HK/68): more protective than those having fewer

Structure (SMILES): CCCCCCCCCCC[C@H](CC(=O)N[C@H]1[C@H](OC[C@H](NC(=O)C[C@@H](CCCCCCCCCCC)OC(=O)CCCCC)C(=O)O)O[C@H](CO)[C@@H](OP(=O)(O)O)[C@@H]1OC(=O)C[C@@H](CCCCCCCCCCC)OC(=O)CCCCCCCCC)OC(=O)CCCCCCCCC.CCN(CC)CC [RC-569]
- % inhib. LPS IL-8 [2]: −13%
- protection against influenza challenge, compared by secondary fatty acid chains (influenza A/HK/68): more protective than those having fewer
